From US8822467B2 (Ligand Pharmaceuticals Inc., priority 2009, dated 2014)
pIC50: −log10 of the molar value.

Target: T1, human CRTH2 (Homo sapiens, UniProt Q9Y5Y4)
T1 construct: expressed in transfected cells
T1 sequence (Q9Y5Y4 1-395): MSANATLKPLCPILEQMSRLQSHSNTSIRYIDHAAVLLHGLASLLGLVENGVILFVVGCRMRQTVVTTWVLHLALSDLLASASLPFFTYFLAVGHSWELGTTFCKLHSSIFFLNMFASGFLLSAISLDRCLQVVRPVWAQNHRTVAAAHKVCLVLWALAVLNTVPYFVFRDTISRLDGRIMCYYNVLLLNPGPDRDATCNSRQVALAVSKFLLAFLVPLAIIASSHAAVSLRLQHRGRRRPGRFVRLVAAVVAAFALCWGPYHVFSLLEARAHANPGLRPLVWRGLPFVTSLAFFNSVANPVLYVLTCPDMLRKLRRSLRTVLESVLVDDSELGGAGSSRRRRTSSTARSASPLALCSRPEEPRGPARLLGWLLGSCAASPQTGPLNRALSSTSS
Test: [35S]GTPγS binding assay (SPA) on membranes from CHO-K1 cells stably expressing human CRTH2, stimulated with 60 nM DHK-PGD2
Type: biochemical
Conditions: membranes of CHO-K1 cells expressing human CRTH2; 60 nM DHK-PGD2; Table 1; read-out: CRTH2 hGTPγS IC50
Procedure, shortened: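 Read-out is scintillation proximity: bound [35S]GTPγS (500 pM, with 10 μM GDP) was counted 4 h after centrifuging a 2 h ambient-temperature incubation. Reactions held 4 μg human CRTH2 CHO-K1 membrane protein, 60 nM DHK-PGD2 agonist and test compounds at increasing concentrations. Buffer: 20 mM HEPES pH 7.4, 10 mM MgCl2, 300 mM NaCl, 0.2% BSA, 1% DMSO.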

Row | pIC50 | SMILES
1 | 7.89 | CN(Cc1ccc(OCC(=O)O)c(-c2cc(F)cc(F)c2)c1)S(=O)(=O)c1ccc(F)c(Cl)c1 [Example 67, 2-(3,5-difluorophenyl)-4-((3-chloro4-fluoro-N-methylphenylsulfonamido)methyl)phenoxyacetic acid]
2 | 7.82 | N#Cc1cc(F)cc(-c2cc(CNS(=O)(=O)c3ccc(F)c(F)c3)ccc2OCC(=O)O)c1 [Example 194, 2-(3-cyano-5-fluorophenyl)-4-((3,4-difluorophenylsulfonamido)methyl)phenoxyacetic acid]
3 | 8.54 | COc1cc(F)cc(-c2cc(CN(C)S(=O)(=O)c3ccc(OC)c(F)c3)ccc2OCC(=O)O)c1 [Example 48, 2-(3-fluoro-5-methoxyphenyl)-4-((3-fluoro-4-methoxy-N-methylphenylsulfonamido)methyl)phenoxyacetic acid]

Same assay, conditions: potency class symbols; Table 2; read-out: CRTH2 hGTPγS IC50

Row | pIC50 | SMILES
4 | > 7.00 | Cc1cc(S(=O)(=O)N(C)Cc2ccc(OCC(=O)O)c(-c3cc(F)cc(F)c3)c2)ccc1F [Example 82, 2-(3,5-difluorophenyl)-4-((3-methyl-4-fluoro-N-methylphenylsulfonamido)methyl)phenoxyacetic acid]
5 | 6.00 to 7.00 | CN(Cc1ccc(OCC(=O)O)c(-c2cncc(C#N)c2)c1)S(=O)(=O)c1ccc(F)cc1 [Example 108, 2-(3-cyano-5-pyridinyl)-4-((4-fluoro-N-methylphenylsulfonamido)methyl)phenoxyacetic acid]
6 | 5.00 to 6.00 | CN(Cc1ccc(OCC(=O)O)c(-c2ccc3ncn(C)c3c2)c1)S(=O)(=O)c1ccc(F)cc1 [Example 184, 2-(3-methyl-3H-benzo[d]imidazol-5-yl)-4-((4-fluoro-N-methylphenylsulfonamido)methyl)phenoxyacetic acid]
7 | > 7.00 | CC(c1ccc(OCC(=O)O)c(-c2cccc(C(F)(F)F)c2)c1)N(C)S(=O)(=O)c1ccc(F)c(F)c1 (stereo not drawn) [Example 93, 2-(3-trifluoromethylphenyl)-4-(1-(3,4-difluoro-N-methylphenylsulfonamido)ethyl)phenoxyacetic acid]
8 | > 7.00 | CN(Cc1cc(-c2cc(F)cc(C#N)c2)c(OCC(=O)O)cc1Cl)S(=O)(=O)c1ccc(F)cc1 [Example 213, 2-(3-cyano-5-fluoro-phenyl)-4-((4-fluoro-N-methylphenylsulfonamido)methyl)-5-chlorophenoxyacetic acid]
9 | > 7.00 | CN(Cc1ccc(OCC(=O)O)c(-c2cccc(S(C)(=O)=O)c2)c1)S(=O)(=O)c1ccc(C#N)cc1 [Example 86, 2-(3-methylsulfonylphenyl)-4-((4-cyano-N-methylphenylsulfonamido)methyl)phenoxyacetic acid]
10 | 5.00 to 6.00 | Cc1cccc(-c2cc(CN(C)S(=O)(=O)c3ccc(F)cc3)ccc2OCC(=O)O)c1 [Example 156, 2-(3-methylphenyl)-4-((4-fluoro-N-methylphenylsulfonamido)methyl)phenoxyacetic acid]
11 | 6.00 to 7.00 | COc1cc(S(=O)(=O)N(C)Cc2ccc(OCC(=O)O)c(-c3cccc(C#N)c3)c2)ccc1F [Example 103, 2-(3-cyanophenyl)-4-((3-methoxy-4-fluoro-N-methylphenylsulfonamido)methyl)phenoxyacetic acid]
12 | > 7.00 | CN(Cc1ccc(OCC(=O)O)c(-c2cccc(C#N)c2)c1)S(=O)(=O)c1cc(F)cc(Cl)c1 [Example 99, 2-(3-cyanophenyl)-4-((3-chloro-5-fluoro-N-methylphenylsulfonamido)methyl)phenoxyacetic acid]
13 | > 7.00 | COc1ccc(S(=O)(=O)N(C)Cc2ccc(OCC(=O)O)c(-c3cccc(C#N)c3)c2)cc1F [Example 71, 2-(3-cyanophenyl)-4-((3-fluoro-4-methoxy-N-methylphenylsulfonamido)methyl)phenoxyacetic acid]
14 | > 7.00 | N#Cc1cc(F)cc(-c2cc(CNS(=O)(=O)c3ccc(F)c(F)c3)ccc2OCC(=O)O)c1 [Example 194, 2-(3-cyano-5-fluorophenyl)-4-((3,4-difluorophenylsulfonamido)methyl)phenoxyacetic acid]
15 | > 7.00 | N#Cc1cccc(-c2cc(CNS(=O)(=O)c3ccc(F)cc3)ccc2OCC(=O)O)c1 [Example 9, 2-(2-(3-cyanophenyl)-4-((4-fluorophenylsulfonamido)methyl)phenoxy)acetic acid]
16 | 6.00 to 7.00 | CN(Cc1ccc(OCC(=O)O)c(-c2cccc(C(F)(F)F)c2)c1)S(=O)(=O)c1ccc2ccccc2c1 [Example 148, 2-(3-trifluoromethylphenyl)-4-((N-methylnaphthalene-2-sulfonamido)methyl)phenoxyacetic acid]
17 | > 7.00 | COc1ccc(S(=O)(=O)N(C)Cc2ccc(OCC(=O)O)c(-c3cc(F)cc(F)c3)c2)cc1F [Example 189, 2-(3,5-difluorophenyl)-4-((3-fluoro-4-methoxy-N-methylphenylsulfonamido)methyl)phenoxyacetic acid]

The remaining lines, values behind:

Row | SMILES | pIC50
18 | CN(Cc1ccc(OCC(=O)O)c(-c2cccc(C#N)c2)c1)S(=O)(=O)c1ccc(Cl)c(Cl)c1 [Example 56, 2-(3-cyanophenyl)-4-((3,4-dichloro-N-methylphenylsulfonamido)methyl)phenoxyacetic acid] | > 7.00
19 | CN(Cc1ccc(OCC(=O)O)c(-c2ccc(Cl)cc2)c1)S(=O)(=O)c1ccc(F)cc1 [Example 165, 2-(4-chlorophenyl)-4-((4-fluoro-N-methylphenylsulfonamido)methyl)phenoxyacetic acid] | 5.00 to 6.00
20 | CN(Cc1ccc(OCC(=O)O)c(-c2cnccn2)c1)S(=O)(=O)c1ccc(F)cc1 [Example 155, 2-(pyrazinyl)-4-((4-fluoro-N-methylphenylsulfonamido)methyl)phenoxyacetic acid] | 5.00 to 6.00
21 | Cc1ccc(-c2cc(CN(C)S(=O)(=O)c3ccc(F)cc3)ccc2OCC(=O)O)cc1S(C)(=O)=O [Example 84, 2-(3-methylsulfonyl-4-methyl-phenyl)-4-((4-fluoro-N-methylphenylsulfonamido)methyl)phenoxyacetic acid] | > 7.00
22 | CN(Cc1ccc(OCC(=O)O)c(-c2ccc3cc[nH]c3c2)c1)S(=O)(=O)c1ccc(F)cc1 [Example 183, 2-(1H-indol-6-yl)-4-((4-fluoro-N-methylphenylsulfonamido)methyl)phenoxyacetic acid] | 5.00 to 6.00
23 | CN(Cc1ccc(OCC(=O)O)c(-c2cccc(C(F)(F)F)c2)c1)S(=O)(=O)c1ccc(Cl)cc1 [Example 116, 2-(3-trifluoromethylphenyl)-4-((4-chloro-N-methylphenylsulfonamido)methyl)phenoxyacetic acid] | 6.00 to 7.00
24 | CC(C)Oc1cc(F)cc(-c2cc(CN(C)S(=O)(=O)c3ccc(F)cc3)ccc2OCC(=O)O)c1 [Example 100, 2-(3-isopropoxy-5-fluorophenyl)-4-((4-fluoro-N-methylphenylsulfonamido)methyl)phenoxyacetic acid] | > 7.00
25 | COc1ccc(S(=O)(=O)N(C)Cc2ccc(OCC(=O)O)c(-c3cc(F)cc(C#N)c3)c2)cc1F [Example 41, 2-(3-cyano-5-fluorophenyl)-4-((3-fluoro-4-methoxy-N-methylphenylsulfonamido)methyl)phenoxyacetic acid] | > 7.00
26 | CN(Cc1ccc(OCC(=O)O)c(-c2cc(F)cc(F)c2)c1)S(=O)(=O)c1ccc(F)c(Cl)c1 [Example 67, 2-(3,5-difluorophenyl)-4-((3-chloro4-fluoro-N-methylphenylsulfonamido)methyl)phenoxyacetic acid] | > 7.00
27 | COC(=O)c1cccc(-c2cc(CN(C)S(=O)(=O)c3ccc(F)cc3)ccc2OCC(=O)O)c1 [Example 141, 2-(3-methoxycarbonylphenyl)-4-((4-fluoro-N-methylphenylsulfonamido)methyl)phenoxyacetic acid] | 6.00 to 7.00
28 | CN(Cc1cc(-c2cccc(C#N)c2)c(OCC(=O)O)cc1Cl)S(=O)(=O)c1ccccc1 [Example 73, 2-(3-cyanophenyl)-4-((N-methylphenylsulfonamido)methyl)-5-chlorophenoxyacetic acid] | > 7.00
29 | CN(Cc1ccc(OCC(=O)O)c(-c2ccccc2Cl)c1)S(=O)(=O)c1ccc(F)cc1 [Example 177, 2-(2-chlorophenyl)-4-((4-fluoro-N-methylphenylsulfonamido)methyl)phenoxyacetic acid] | 5.00 to 6.00
30 | CN(Cc1ccc(OCC(=O)O)c(-c2cccc(C(F)(F)F)c2)c1)S(=O)(=O)c1ccc(C#N)cc1 [Example 120, 2-(3-trifluoromethylphenyl)-4-((4-cyano-N-methylphenylsulfonamido)methyl)phenoxyacetic acid] | 6.00 to 7.00
31 | CN(Cc1ccc(OCC(=O)O)c(-c2cccc(S(C)(=O)=O)c2)c1)S(=O)(=O)c1cccc(F)c1 [Example 57, 2-(3-methylsulfonylphenyl)-4-((3-fluoro-N-methylphenylsulfonamido)methyl)phenoxyacetic acid] | > 7.00
32 | COc1cc(F)cc(-c2cc(CN(C)S(=O)(=O)c3ccc(OC)c(F)c3)ccc2OCC(=O)O)c1 [Example 48, 2-(3-fluoro-5-methoxyphenyl)-4-((3-fluoro-4-methoxy-N-methylphenylsulfonamido)methyl)phenoxyacetic acid] | > 7.00
33 | N#Cc1cc(F)cc(-c2cc(CNS(=O)(=O)c3ccc(F)c(Cl)c3)ccc2OCC(=O)O)c1 [Example 193, 2-(3-cyano-5-fluorophenyl)-4-((3-chloro-4-fluorophenylsulfonamido)methyl)phenoxyacetic acid] | > 7.00
34 | CNS(=O)(=O)c1cccc(-c2cc(CN(C)S(=O)(=O)c3ccc(F)c(F)c3)ccc2OCC(=O)O)c1 [Example 50, 2-(3-N-methylsulfamoylphenyl)-4-((3,4-difluoro-N-methylphenylsulfonamido)methyl)phenoxyacetic acid] | > 7.00
35 | CN(Cc1ccc(OCC(=O)O)c(-c2cccc3ncccc23)c1)S(=O)(=O)c1ccc(F)cc1 [Example 180, 2-(quinolin-5-yl)-4-((4-fluoro-N-methylphenylsulfonamido)methyl)phenoxyacetic acid] | 5.00 to 6.00
36 | CN(Cc1ccc(OCC(=O)O)c(-c2cccc(C#N)c2)c1)S(=O)(=O)c1cccc(C(F)(F)F)c1 [Example 102, 2-(3-cyanophenyl)-4-((3-trifluoromethyl-N-methylphenylsulfonamido)methyl)phenoxyacetic acid] | 6.00 to 7.00
